From ChEMBL document CHEMBL1144924, “Calculation of the binding affinity of beta-secretase inhibitors using the linear interaction energy method” (J Med Chem, 2003)

Molecular target: Beta-secretase 1 (Homo sapiens, UniProt P56817)
Experiment: Binding affinity for human brain memapsin 2 beta-Secretase (BACE)

Sequence of Beta-secretase 1 (P56817 whole entry): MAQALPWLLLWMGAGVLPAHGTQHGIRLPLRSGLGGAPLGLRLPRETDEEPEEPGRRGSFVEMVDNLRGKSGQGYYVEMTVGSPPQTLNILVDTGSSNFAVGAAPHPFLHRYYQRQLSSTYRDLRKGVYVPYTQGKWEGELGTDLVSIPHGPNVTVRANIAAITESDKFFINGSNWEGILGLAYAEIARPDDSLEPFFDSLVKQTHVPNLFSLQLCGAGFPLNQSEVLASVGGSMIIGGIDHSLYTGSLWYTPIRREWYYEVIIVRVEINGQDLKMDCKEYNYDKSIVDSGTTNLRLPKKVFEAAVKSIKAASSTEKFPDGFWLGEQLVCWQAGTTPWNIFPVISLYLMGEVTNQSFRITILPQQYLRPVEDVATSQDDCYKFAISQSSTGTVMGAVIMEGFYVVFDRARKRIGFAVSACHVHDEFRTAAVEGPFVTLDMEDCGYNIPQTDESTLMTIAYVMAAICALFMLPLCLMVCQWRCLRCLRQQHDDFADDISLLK

`CSCCC(NC(=O)[C@@H](NC(=O)OC(C)(C)C)C(C)C)C(=O)N[C@@H](CC(C)C)C(O)CC(C)C(=O)NC(C(=O)NCc1ccccc1)C(C)C` (some centres undefined) gave a Ki of 2.5 nM.

In the case of `CC(C)C[C@H](NC(=O)C(CS(C)(=O)=O)NC(=O)[C@@H](NC(=O)OC(C)(C)C)C(C)C)C(O)CC(C)C(=O)NC(C(=O)NCc1ccccc1)C(C)C` (some centres undefined), the Ki is reported as 9.4 nM.

`CC(C)C[C@H](NC(=O)[C@H](CS(C)(=O)=O)NC(=O)OC(C)(C)C)C(O)CC(C)C(=O)NC(C(=O)NCc1ccccc1)C(C)C` (some centres undefined) showed a Ki of 1130 nM.

`CC(C)C[C@H](NC(=O)C(CC(N)=O)NC(=O)[C@@H](NC(=O)OC(C)(C)C)C(C)C)C(O)CC(C)C(=O)NC(C(=O)NCc1ccccc1)C(C)C` (some centres undefined) showed a Ki of 5.9 nM.

Work on `CC(C)C[C@H](NC(=O)[C@H](CC(N)=O)NC(=O)OC(C)(C)C)C(O)CC(C)C(=O)NC(C(=O)NCc1ccccc1)C(C)C` (some centres undefined) yielded a Ki of 3130 nM.

With `CC(C)C[C@H](NC(=O)[C@H](CC(N)=O)NC(=O)OC(C)(C)C)C(O)CC(C)C(=O)NC(C)C(=O)NCc1ccccc1` (some centres undefined) the Ki was 22400 nM.

In the case of `CSCC(NC(=O)[C@@H](NC(=O)OC(C)(C)C)C(C)C)C(=O)N[C@@H](CC(C)C)C(O)CC(C)C(=O)NC(C(=O)NCc1ccccc1)C(C)C` (some centres undefined), the Ki is reported as 50.1 nM.

For `CC(C)C[C@H](NC(=O)C(CC(N)=O)NC(=O)[C@@H](NC(=O)OC(C)(C)C)C(C)C)C(O)CC(C)C(=O)NC(C)C(=O)NCc1ccccc1` (some centres undefined), the Ki was 61.4 nM.

In the case of `CSCCC(NC(=O)OC(C)(C)C)C(=O)N[C@@H](CC(C)C)C(O)CC(C)C(=O)NC(C(=O)NCc1ccccc1)C(C)C` (some centres undefined), the Ki is reported as 5810 nM.
